Literature values in patent US20180327482A1, “METHODS AND COMPOSITIONS FOR THE TREATMENT OF HCMV” (priority 2013, published 2018).

Tested on: cells latently infected with HCMV
Conditions: Weekes et al., Science 340:199-202 (2013)

## CC[C@]1(O)C[C@H]2CN(CCc3c([nH]c4ccccc34)[C@@](C(=O)OC)(c3cc4c(cc3OC)N(C=O)[C@H]3[C@@](O)(C(=O)OC)[C@H](OC(C)=O)[C@]5(CC)C=CCN6CC[C@]43[C@@H]65)C2)C1 [Vincristine]
  Elimination of cells latently infected with HCMV: can be used therapeutically to eliminate cells latently infected with HCMV
